The values that follow come from patent US20200345055A1, “ACTIVATION OF CONDITIONALLY-EXPRESSED OLIGOSACCHARIDE PATHWAYS DURING FERMENTATION OF PROBIOTIC STRAINS” (EVOLVE BIOSYSTEMS, INC., priority 2018, published 2020).

Entries after “also recorded” stand apart in the source; their conditions may differ.

The test system of test [1] is Blon_0881 (glucosamine-6-phosphate isomerase). Description: qRT-PCR gene expression in B. infantis EVC001, relative to Blon_0393, 2^-ΔΔCt. The class given is cell-based, Bifidobacterium longum subsp. infantis EVC001. The following applies: 10 g/L activator + 10 g/L glucose, 16 hours; control 20 g/L glucose = 1. The procedure:
(§1) In some embodiments, gene activation relates to Blon_0881 and Blon_2343 and their expression is greater than 1; that is, when the delta delta cycle threshold (2^−ΔΔ^Ct) is greater than 1, 2^−ΔΔ^Ct is calculated using Blon_0393, or another constitutively expressed gene as a reference. The result (activation) is the fold change (2^−ΔΔ^Ct>1) of gene expression, determined based on the 2^−ΔΔ^Ct method. (Livak K and Schmittgen T. (2001). Analysis of relative gene expression data using qRT-PCR and the 2^−ΔΔ^Ct Method. Methods: 25: 402-8). In other embodiments, other genes from Table 1 are used in addition to Blon_0881 and Blon_2343.
(§2) B. infantis EVC001 (Bifidobacterium longum subsp. infantis EVC001 deposited under ATCC Accession No. PTA-125180) was grown under 3 different experimental conditions for 16 hours. The carbon source was added to the initial culture media in the following amounts: 1) 20 g/L glucose; 2) 10 g/L N-acetyl-lactosamine and 10 g/L glucose; and 3) 10 g/L NAG and 10 g/L glucose. The cells were harvested and RNA was extracted to look specifically at gene expression of Blon_0881 and Blon_2343 by qRT-PCR relative to Blon_0393 and expressed as 2^−ΔΔ^Ct. Activation is determined by comparing against the control (glucose). A result greater than 1 is considered activated N-acetyl-lactosamine is an activator of B. infantis EVC001.
(In general: Quantitative PCR measures a nucleic acid by following its amplification.)

For test [2], the system named is Blon_2343 (carbohydrate ABC transporter inner membrane protein). The test is described as above. The class given is cell-based, Bifidobacterium longum subsp. infantis EVC001. Particulars: 10 g/L activator + 10 g/L glucose, 16 hours; control 20 g/L glucose = 1. As to the method:
as §1, §2

The next test relates to B. infantis EVC001. Put plainly: Activation of B. infantis EVC001 judged from Blon_0881 and Blon_2343 expression against glucose control. The class given is cell-based, Bifidobacterium longum subsp. infantis EVC001. The following applies: 10 g/L activator + 10 g/L glucose, 16 hours. The procedure: as §1, §2
The subject of test [3] is N-acetylglucosamine-6-phosphate deacetylase gene in L. plantarum. Put plainly: qRT-PCR of N-acetylglucosamine-6-phosphate deacetylase in Lactobacillus plantarum, normalized to rpoB. The class given is cell-based. Particulars: for activation of L. plantarum (fold change of N-acetylglucosamine-6-phosphate deacetylase expression): FIG. 3. From the text: FIG. 3. Average relative fold change in the expression of the genes coding for N-acetylglucosamine-6-phosphate deacetylase under different concentrations of N-acetylglucosamine (NAG) added to the culture media for Lactobacillus plantarum. Culture media with different concentrations of NAG (3, 12.5 and 20 g/L) were used to ferment Lactobacillus plantarum. The cells were harvested and RNA was isolated for qRT-PCR. Using specific primers for N-acetylglucosamine-6-phosphate deacetylase, activation was assessed using normalization to a housekeeping gene (rpoB) found in L. plantarum. […] Three different fermentation media compositions were made that contained: 1) 100% NAG (25 g/L); 2) 50% NAG (12.5 g/L) with 50% Lactose (12.5 g/L); and 3) 12.5% NAG (3 g/L) with 87.5% lactose (22 g/L). This represented about 2% of the total media composition (wt/vol). The media also contained sources of nitrogen, minerals, reducing agents and was autoclaved prior to addition of L. plantarum inoculum. The fermentation was carried out under anaerobic conditions for 24 hours until the cells reached the stationary phase. The cells were harvested and RNA extracted (Sambrook, Joseph. & Russell, David W. & Cold Spring Harbor Laboratory. (2012). Molecular cloning: a laboratory manual. Cold Spring Harbor, N.Y: Cold Spring Harbor Laboratory). Specific primers for Lactobacillus were used for the following gene N-acetylglucosamine-6-phosphate deacetylase (activation gene) using normalization to a housekeeping gene (rpoB) found in L. plantarum.

For test [4], the system named is Blon_2343 and Blon_0881 in B. infantis. Put plainly: qRT-PCR of Blon_2343 and Blon_0881 in B. infantis grown on NAG/glucose, normalized to Blon_0393. The class given is cell-based. The following applies: all tested concentrations of NAG (5-20 g/L with glucose to 20 g/L), harvested after 6 or 12 hours; FIG. 2. As to the method: FIG. 2. Average relative fold change in gene expression of the genes Blon_2343 and Blon_0881 in B. infantis coding a carbohydrate ABC transporter inner membrane protein and a glucosamine-6-phosphate isomerase or NagB, respectively. Different concentrations of N-acetylglucosamine (NAG) were added to the culture media used to ferment B. infantis. The cells were harvested after 6 hours (A) or 12 hours of growth (B) and RNA was isolated for quantitative reverse transcription PCR (qRT-PCR). Activation was assessed using specific primers for Blon_2343 and Blon_0881 and normalized to a housekeeping gene (Blon_0393). The dashed horizontal line represents no change in expression. […] Cells grown in glucose alone (0 g/L NAG) show no activation.
In some embodiments, gene activation relates to Blon_0881 and Blon_2343 and their expression is greater than 1; that is, when the delta delta cycle threshold (2^−ΔΔ^Ct) is greater than 1, 2^−ΔΔ^Ct is calculated using Blon_0393, or another constitutively expressed gene as a reference. The result (activation) is the fold change (2^−ΔΔ^Ct>1) of gene expression, determined based on the 2^−ΔΔ^Ct method. […]
A series of fermentations were conducted where B. infantis was grown on various concentrations of NAG and glucose shown in Table 5. The cells were grown for a determined period of time (i.e 6 and 12 hours) and spun down. […]

Test [5] has as its system fucosidase activity in B. infantis. Put plainly: Fucosidase activity of dried B. infantis final product (colorimetric nitrophenol release, absorbance at 450 nm). The class given is cell-based, Bifidobacterium infantis. As to the method: FIG. 1. A comparison of fucosidase activity between a final product of B. infantis grown on N-acetylglucosamine (NAG) and a final product of B. infantis grown on glucose/lactose. B. infantis grown on 2.5% w/v NAG is compared to B. infantis grown on glucose/lactose. The absorbance due to the colorometric change resulting from fucosidase activity in the supernatant is measured using a spectrophotometer at 450 nm. […] A fermentation media was made that contained NAG as 100% of the carbon source. This represented 2% of the total media composition (wt/vol). The media also contained sources of nitrogen, minerals, reducing agents and was autoclaved prior to addition of a B. infantis inoculum. The fermentation was carried out under anaerobic conditions for up to 72 hours, until the fermentation reached the stationary phase. The cells were separated from the spent media and concentrated. A cryoprotectant was mixed with the cells to stabilize before freeze-drying. Once dried, the formulation was analyzed for fucosidase activity compared to a dried formulation that had been grown on glucose/lactose. […] The colorimetric difference was confirmed using a spectrophotometer (FIG. 1).

With `CC(=O)N[C@H]1C(O)O[C@H](CO)[C@@H](O[C@@H]2O[C@H](CO)[C@H](O)[C@H](O)[C@H]2O)[C@@H]1O` (stereo partly shown) [N-acetyl-lactosamine], the “Mean 2^-ΔΔCt BLON_0881” value in test [1] is 10.50. In test [2], the “Mean 2^-ΔΔCt BLON_2343” value turned out to be 6.94. Also, the “Interpretation (activation; result greater than 1 is considered activated)” value in the test on B. infantis EVC001 is recorded as “activator; also recorded: Activated”.

For the compound `CC(=O)N[C@H]1C(O)O[C@H](CO)[C@@H](O)[C@@H]1O` (stereo partly shown) [NAG, N-acetylglucosamine], the “Mean 2^-ΔΔCt BLON_0881” value in test [1] worked out at 3.41. Besides, the “Mean 2^-ΔΔCt BLON_2343” value in test [2] was 2.10. Besides, the “Interpretation (activation; result greater than 1 is considered activated)” value with B. infantis EVC001 is on record as “Activated”. Further, the “activation of L. plantarum (fold change of N-acetylglucosamine-6-phosphate deacetylase expression)” value in test [3] (3 g/L NAG (12.5%) with 22 g/L lactose, 24 hours) was “did not”; in test [3] (12.5 g/L NAG (50%) with 12.5 g/L lactose, 24 hours) it was “activated; also recorded: activation”; in test [3] (20 g/L NAG in culture media) it was “activated”. For the same compound, in test [3] (100% NAG (25 g/L) as carbon source, 24 hours), the “activation of L. plantarum (N-acetylglucosamine-6-phosphate deacetylase expression)” value is “activation”. The “relative fold change in gene expression of Blon_2343 and Blon_0881 (2^ΔΔCt), activation” value in test [4] is on record as above 1. In addition, in test [5] (B. infantis final product grown on 2.5% w/v NAG, compared to cells grown on glucose/lactose, FIG. 1), the “fucosidase activity (absorbance at 450 nm)” value is “had fucosidase activity”. In addition, the “release of nitrophenol from aryl-substituted glycoside via fucosidases” value in test [5] (dried B. infantis grown on NAG as 100% of carbon source, 2% wt/vol of media, up to 72 hours, compared to glucose/lactose) is recorded as “release nitrophenol”.
